The target of assay [1] is T1, cytochrome P450eryF (Saccharopolyspora erythraea, UniProt Q00441). The assay is described as follows: lifetime FRET from F7GA to heme. The assay is classed as binding.
For assay [2], the target named is T1, cytochrome P450eryF. Description: ligand-induced spin shift. The assay is classed as binding.

Molecules are shown by their SMILES.

T1 sequence (Q00441 whole entry): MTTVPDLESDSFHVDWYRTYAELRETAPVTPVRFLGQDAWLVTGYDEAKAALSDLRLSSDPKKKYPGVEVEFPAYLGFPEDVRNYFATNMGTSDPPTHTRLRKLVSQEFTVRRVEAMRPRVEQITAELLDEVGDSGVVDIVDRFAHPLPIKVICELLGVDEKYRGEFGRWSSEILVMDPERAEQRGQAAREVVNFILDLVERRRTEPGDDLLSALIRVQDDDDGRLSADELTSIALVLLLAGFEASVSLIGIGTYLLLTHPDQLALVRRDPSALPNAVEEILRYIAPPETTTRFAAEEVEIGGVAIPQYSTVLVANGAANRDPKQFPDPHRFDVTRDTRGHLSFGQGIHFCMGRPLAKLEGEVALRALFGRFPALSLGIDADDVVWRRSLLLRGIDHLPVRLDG

Turning to `CCCCNc1ccc2c3c(cccc13)C(=O)N(CCCC)C2=O` [F7GA, 2-butyl-6-(butylamino)-1H-benzo[de]isoquinoline-1,3(2H)-dione], binding on cytochrome P450eryF [1] was put at a Kd of 140 ± 60 nM.

In the case of `CCN(CC)c1ccc2nc3c4ccccc4c(=O)cc-3oc2c1` [Nile Red], the Kd at cytochrome P450eryF [2] amounted to 3200 ± 200 nM.

(Values after PMC2662524 (Biochemistry, 2008).)
